The record followed here is patent EP3748362A1, “IN VITRO METHOD FOR DETECTING RENAL DISEASE” (Fundacion Instituto De Investigacion Sanitaria Fundacion …, priority 2019, dated 2020).

One assay relates to NF-κB2. In words: Non-canonical NF-κB2 activation in TWEAK-stimulated PBMCs from healthy donors. The assay is classed as cell-based, Human. The settings on record: 12 µM paricalcitol 24 hours, TWEAK 100 ng/ml, p52 levels.
The test system of assay [1] is TWEAK-induced renal inflammation. In words: TWEAK-induced renal inflammation in mice (immunohistochemistry, real time PCR, ELISA). The settings on record: TWEAK-injected mice, paricalcitol 750 ng/kg/day or SN52 0.7 mg/mouse/day. The format is in vivo, C57BL/6 mice. The method, then: All animal procedures were performed according to the guidelines of animal research in the European Community and with prior approval by the Ethics Committee of the Health Research of the IIS-Fundacion Jiménez Díaz. For in vivo studies, mice received a daily intraperitoneal injection of the VDRA Paricalcitol starting 48 hours prior to induction of kidney damage.
At the time of sacrifice, animals were anesthetized with 5 mg/kg xylazine (Rompun, Bayer AG) and 35 mg/kg ketamine (Ketolar, Pfizer) and the kidneys perfused in situ with cold saline before removal. […]
Paraffin-embedded kidney sections (3 µm) were stained using conventional methods. […] For each sample (processed by duplicate in a blinded manner), the average value was obtained from the analysis of 4 fields (20X objective) as density/mm2 or percentage stained area vs total analyzed area. Data are expressed as fold increase over control mice, as mean ± SEM of 8-10 animals per group. […]
ELISA was used to evaluate levels of the chemokines CCL2 and CCL5 (eBioscience). In renal samples, total protein content was determined by the BCA method, and equal amounts of protein were analyzed. Data are expressed as n-fold increase over the mean of control levels.
Total RNA was isolated from cells and mouse kidney samples with Trizol (Invitrogen). […] The mRNA copy numbers were calculated for each sample by the instrument software using Ct value. […]

In assay [2] the test system is proinflammatory gene expression. In words: Proinflammatory gene expression (real time PCR) in PBMCs from ESRD patients. The assay is classed as in vivo, human. The settings on record: ESRD patients treated with paricalcitol vs untreated ESRD hemodialysis patients. The method, then:
Intracellular protein and mRNA levels were measured in PBMCs from ESRD patients on hemodialysis. Inclusion criteria were as follows: age >45 years; male sex; informed consent; and absence of active inflammatory, infectious, or malignant diseases at the initiation or during the study. This study was approved by the IIS-Fundación Jiménez Diaz Ethics Committee. Patients were enrolled after providing written informed consent. PBMCs were separated from whole blood samples (30 ml into EDTA tubes) by a density gradient centrifugation method using Ficoll density gradient centrifugation. In total, 50x10^6 of PBMCs were obtained from 30 ml of whole blood and 6x10^6 PBMCs were used to isolate protein, RNA and nuclear/cytosolic protein levels using the NE-PER Reagent (Pierce) following the manufacturer's instructions.
Total RNA was isolated from cells and mouse kidney samples with Trizol (Invitrogen). The cDNA was synthesized using the High-Capacity cDNA Archive Kit (Applied Biosystems) using 2 µg total RNA primed with random hexamer primers. […] The mRNA copy numbers were calculated for each sample by the instrument software using Ct value. Results are expressed in copy numbers, calculated relative to unstimulated cells or control mice, after normalization against 18S.

On to `C[C@H](/C=C/[C@H](C)C(C)(C)O)[C@H]1CC[C@H]2/C(=C/C=C3C[C@@H](O)C[C@H](O)C3)CCC[C@]12C` [paricalcitol], for which the “TWEAK-induced NF-κB2 activation” value with NF-κB2 was “inhibited”. In addition, in assay [1] (kidney, real time PCR, ELISA), the “proinflammatory factors, such as CCL2, CCL5 and IL-6” value is reported as “significantly decreased”. The “infiltrating monocytes/macrophages (F4/80+ cells), T lymphocytes (CD3+ cells)” value in assay [1] (kidney immunohistochemistry) is on record as “significantly decreased”. In addition, in assay [2], the “proinflammatory gene expression levels” value was “significantly lower”.
